Assay results reported in article PMC8389037, “Design, Synthesis and Antifungal Activity of Stapled Aurein1.2 Peptides” (Antibiotics, 2021).
In brackets after ≈: the same amount, converted by molar mass. Where a SMILES comes first, the peptide text is derived from it. Bridges are numbered along the chain shown (N, C = ends). [ ]: non-standard residue; d: D form. S5 = C=CCCC[C@](C)(N)C(=O)O

Assays:
Assay in all cases: microbe, parasite or virus in culture
C. albicans 901 = conditions: 901, 48 h
Procedure: (§1) The in vitro antifungal activities of the target peptides were evaluated according to protocols from the CLSI. The broth microdilution method was used to determine the minimum inhibitory concentration (MIC) of the target peptides in 96-well plates. Fluconazole was used as a reference drug.
(§2) Clinical isolates of C. albicans SC5314, 901, 904, C. tropicalis ATCC20026 and clinical isolate 895, C. glabrata ATCC1182 and clinical isolate 896, C. krusei ATCC2340, and C. parapsilosis ATCC22010 are from the collection library in the Drug Discovery and Development Center, Naval Medical University, Shanghai, China. C. auris clinical isolates are provided by Linqi Wang (Institute of Microbiology, Chinese Academy of Sciences) and Changbin Chen (Institut Pasteur of Shanghai, Chinese Academy of Sciences). All strains were cultured in YPD (1% yeast extract, 2% peptone, and 2% glucose) liquid medium overnight at 30 °C with shaking at 220 rpm.
(§3) The MICs of chemicals against all strains were determined by the micro broth dilution method according to the Clinical and Laboratory Standards Institute (Wayne PA, Reference Method for Broth Dilution Antifungal Susceptibility Testing of yeasts, approved Standard M27-A3, 3 rd ed; Clinical and Laboratory Standards Institute (CLSI): USA, 2008). The initial concentration of fungal suspension in RPMI 1640 medium was 3–5 × 10^3 colonies forming unit (CFU)/mL, which was added to 96-well plates. Peptides were prepared in dimethyl sulfoxide (DMSO) with an initial stored concentration of 6.4 mg/mL. Serial dilutions were made based on the CLSI M27 guide to obtaining the final concentrations ranging from 0.125 to 64 μg/mL for fluconazole and 0.25 to 128 μg/mL for peptides […]. The plates were incubated at 30 °C for 48 h. Optical density was measured at 630 nm, and background optical densities were subtracted from that of each well. The definition of MIC is the lowest concentration at which 80% of tested strains cannot grow.

C. albicans 904 = conditions: 904, 48 h
Procedure: as §1, §2, §3

C. albicans SC5314 = conditions: SC5314, 48 h
Procedure: as §1, §2, §3

C. auris 918 = conditions: 918, 48 h
Procedure: as §1, §2, §3

C. auris 919 = conditions: 919, 48 h
Procedure: as §1, §2, §3

C. glabrata 896 = conditions: 896, 48 h
Procedure: as §1, §2, §3

C. glabrata ATCC 1182 = conditions: ATCC 1182, 48 h
Procedure: as §1, §2, §3

C. krusei ATCC 2340 = conditions: ATCC 2340, 48 h
Procedure: as §1, §2, §3

[1] = test system: C. parapsilosis ATCC 22010; conditions: ATCC 22010, 48 h
Procedure: as §1, §2, §3

C. tropicalis 895 = conditions: 895, 48 h
Procedure: as §1, §2, §3

C. tropicalis ATCC 20026 = conditions: ATCC 20026, 48 h
Procedure: as §1, §2, §3

Compound: CC[C@H](C)[C@H](NC(=O)[C@H](CC(=O)O)NC(=O)[C@H](Cc1ccccc1)NC(=O)[C@H](CC(C)C)NC(=O)CNC(C)=O)C(=O)N[C@H](C(=O)N[C@@H](CCCCN)C(=O)N[C@@H](CCCCN)C(=O)N[C@@]1(C)CCCC=CCCC[C@@](C)(C(N)=O)NC(=O)[C@H](CO)NC(=O)[C@H](CCC(=O)O)NC(=O)[C@H](C)NC1=O)[C@@H](C)CC [Sau-9] (Ac-GLFDIIKK[S5]AES[S5]-NH2; staple 9-13)
- Minimum inhibitory concentration (MIC) (C. albicans 901): >128 µg/mL
- Minimum inhibitory concentration (MIC) (C. albicans 904): >128 µg/mL
- Minimum inhibitory concentration (MIC) (C. albicans SC5314): >64 µg/mL
- Minimum inhibitory concentration (MIC) (C. auris 918): >128 µg/mL
- Minimum inhibitory concentration (MIC) (C. auris 919): >128 µg/mL
- Minimum inhibitory concentration (MIC) (C. glabrata 896): >128 µg/mL
- Minimum inhibitory concentration (MIC) (C. glabrata ATCC 1182): >128 µg/mL
- Minimum inhibitory concentration (MIC) (C. krusei ATCC 2340): >128 µg/mL
- Minimum inhibitory concentration (MIC) [1]: >128 µg/mL
- Minimum inhibitory concentration (MIC) (C. tropicalis 895): 32 µg/mL (≈ 21.2 µM)
- Minimum inhibitory concentration (MIC) (C. tropicalis ATCC 20026): >128 µg/mL

Compound: CC[C@H](C)[C@@H]1NC(=O)[C@H](CCCCN)NC(=O)[C@@](C)(NC(=O)[C@@H](NC(=O)[C@@H](NC(=O)[C@H](CC(=O)O)NC(=O)[C@H](Cc2ccccc2)NC(=O)[C@H](CC(C)C)NC(=O)CNC(C)=O)[C@@H](C)CC)[C@@H](C)CC)CCCC=CCCC[C@@](C)(C(=O)N[C@@H](CO)C(=O)N[C@@H](Cc2ccccc2)C(N)=O)NC(=O)[C@H](C)NC1=O [Sau-7] (Ac-GLFDII[S5]KIA[S5]SF-NH2; staple 7-11)
- Minimum inhibitory concentration (MIC) (C. albicans 901): >128 µg/mL
- Minimum inhibitory concentration (MIC) (C. albicans 904): >128 µg/mL
- Minimum inhibitory concentration (MIC) (C. albicans SC5314): >64 µg/mL
- Minimum inhibitory concentration (MIC) (C. auris 918): >128 µg/mL
- Minimum inhibitory concentration (MIC) (C. auris 919): >128 µg/mL
- Minimum inhibitory concentration (MIC) (C. glabrata 896): >128 µg/mL
- Minimum inhibitory concentration (MIC) (C. glabrata ATCC 1182): >128 µg/mL
- Minimum inhibitory concentration (MIC) (C. krusei ATCC 2340): >128 µg/mL
- Minimum inhibitory concentration (MIC) [1]: >128 µg/mL
- Minimum inhibitory concentration (MIC) (C. tropicalis 895): >128 µg/mL
- Minimum inhibitory concentration (MIC) (C. tropicalis ATCC 20026): >128 µg/mL

Compound: CC[C@H](C)[C@H](NC(=O)[C@H](CCCCN)NC(=O)[C@H](CCCCN)NC(=O)[C@@H](NC(=O)[C@]1(C)CCCC=CCCC[C@](C)(NC(C)=O)C(=O)N[C@@H](CC(C)C)C(=O)N[C@@H](Cc2ccccc2)C(=O)N[C@@H](CC(=O)O)C(=O)N1)[C@@H](C)CC)C(=O)N[C@@H](C)C(=O)N[C@@H](CCC(=O)O)C(=O)N[C@@H](CO)C(=O)N[C@@H](Cc1ccccc1)C(N)=O [Sau-1] (Ac-[S5]LFD[S5]IKKIAESF-NH2; staple 1-5)
- Minimum inhibitory concentration (MIC) (C. albicans 901): 32 µg/mL (≈ 20 µM)
- Minimum inhibitory concentration (MIC) (C. albicans 904): >128 µg/mL
- Minimum inhibitory concentration (MIC) (C. albicans SC5314): >64 µg/mL
- Minimum inhibitory concentration (MIC) (C. auris 918): >128 µg/mL
- Minimum inhibitory concentration (MIC) (C. auris 919): >128 µg/mL
- Minimum inhibitory concentration (MIC) (C. glabrata 896): >128 µg/mL
- Minimum inhibitory concentration (MIC) (C. glabrata ATCC 1182): >128 µg/mL
- Minimum inhibitory concentration (MIC) (C. krusei ATCC 2340): >128 µg/mL
- Minimum inhibitory concentration (MIC) [1]: 128 µg/mL (≈ 79.9 µM)
- Minimum inhibitory concentration (MIC) (C. tropicalis 895): >128 µg/mL
- Minimum inhibitory concentration (MIC) (C. tropicalis ATCC 20026): >128 µg/mL

Compound: CC[C@H](C)[C@@H]1NC(=O)[C@H]([C@@H](C)CC)NC(=O)[C@@](C)(NC(=O)[C@H](Cc2ccccc2)NC(=O)[C@H](CC(C)C)NC(=O)CNC(C)=O)CCCC=CCCC[C@@](C)(C(=O)N[C@H](C(=O)N[C@@H](C)C(=O)N[C@@H](CCC(=O)O)C(=O)N[C@@H](CO)C(=O)N[C@@H](Cc2ccccc2)C(N)=O)[C@@H](C)CC)NC(=O)[C@H](CCCCN)NC1=O [Sau-4] (Ac-GLF[S5]IIK[S5]IAESF-NH2; staple 4-8)
- Minimum inhibitory concentration (MIC) (C. albicans 901): >128 µg/mL
- Minimum inhibitory concentration (MIC) (C. albicans 904): >128 µg/mL
- Minimum inhibitory concentration (MIC) (C. albicans SC5314): >64 µg/mL
- Minimum inhibitory concentration (MIC) (C. auris 918): >128 µg/mL
- Minimum inhibitory concentration (MIC) (C. auris 919): >128 µg/mL
- Minimum inhibitory concentration (MIC) (C. glabrata 896): >128 µg/mL
- Minimum inhibitory concentration (MIC) (C. glabrata ATCC 1182): >128 µg/mL
- Minimum inhibitory concentration (MIC) (C. krusei ATCC 2340): >128 µg/mL
- Minimum inhibitory concentration (MIC) [1]: >128 µg/mL
- Minimum inhibitory concentration (MIC) (C. tropicalis 895): >128 µg/mL
- Minimum inhibitory concentration (MIC) (C. tropicalis ATCC 20026): >128 µg/mL
